From PMC4854315, “Discovery of a novel allosteric inhibitor-binding site in ERK5: comparison with the canonical kinase hinge ATP-binding site” (Acta Crystallographica. Section D, Structural Biology, 2016)

How the values were obtained:
Test in all cases: Z'-LYTE kinase panel
Format in all cases: biochemical
MERTK (cMER) = target: T1, MERTK (cMER) (Homo sapiens, UniProt Q12866)
T1 construct: purchased ThermoFisher (SelectScreen, Z'-LYTE)
T1 sequence (Q12866 21-999): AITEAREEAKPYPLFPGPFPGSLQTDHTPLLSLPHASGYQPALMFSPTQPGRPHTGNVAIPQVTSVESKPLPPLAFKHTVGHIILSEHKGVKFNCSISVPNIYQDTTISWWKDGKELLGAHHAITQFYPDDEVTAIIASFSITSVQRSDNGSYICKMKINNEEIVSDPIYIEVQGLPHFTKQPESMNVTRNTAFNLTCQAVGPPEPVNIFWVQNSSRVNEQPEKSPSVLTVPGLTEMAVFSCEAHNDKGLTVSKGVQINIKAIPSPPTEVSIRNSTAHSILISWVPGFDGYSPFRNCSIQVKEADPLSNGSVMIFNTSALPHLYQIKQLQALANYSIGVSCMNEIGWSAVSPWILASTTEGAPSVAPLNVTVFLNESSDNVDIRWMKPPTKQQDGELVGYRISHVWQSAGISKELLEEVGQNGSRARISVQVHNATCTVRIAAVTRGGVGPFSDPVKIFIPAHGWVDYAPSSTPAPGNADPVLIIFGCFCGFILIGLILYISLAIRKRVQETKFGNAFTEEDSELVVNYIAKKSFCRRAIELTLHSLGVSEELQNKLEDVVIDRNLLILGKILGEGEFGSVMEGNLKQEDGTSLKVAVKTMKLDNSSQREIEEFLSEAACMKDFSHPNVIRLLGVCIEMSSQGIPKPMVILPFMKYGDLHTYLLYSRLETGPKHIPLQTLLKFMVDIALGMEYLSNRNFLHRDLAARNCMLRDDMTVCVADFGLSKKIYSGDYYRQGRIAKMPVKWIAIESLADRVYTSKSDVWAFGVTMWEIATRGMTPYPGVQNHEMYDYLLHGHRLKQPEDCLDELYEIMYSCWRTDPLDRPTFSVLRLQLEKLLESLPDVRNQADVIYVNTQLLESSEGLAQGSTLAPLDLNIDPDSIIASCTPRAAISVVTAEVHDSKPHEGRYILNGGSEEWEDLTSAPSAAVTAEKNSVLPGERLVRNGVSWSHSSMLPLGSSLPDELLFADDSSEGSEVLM
In short: (§1)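 Each compound was added at 10 µM, kinase activity was then measured via the standard Z′-LYTE assay, and percentage inhibition was calculated; 225 kinases were covered.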

MUSK = target: T2, MUSK (Homo sapiens, UniProt O15146)
T2 construct: purchased ThermoFisher (SelectScreen, Z'-LYTE)
T2 sequence (O15146 24-869): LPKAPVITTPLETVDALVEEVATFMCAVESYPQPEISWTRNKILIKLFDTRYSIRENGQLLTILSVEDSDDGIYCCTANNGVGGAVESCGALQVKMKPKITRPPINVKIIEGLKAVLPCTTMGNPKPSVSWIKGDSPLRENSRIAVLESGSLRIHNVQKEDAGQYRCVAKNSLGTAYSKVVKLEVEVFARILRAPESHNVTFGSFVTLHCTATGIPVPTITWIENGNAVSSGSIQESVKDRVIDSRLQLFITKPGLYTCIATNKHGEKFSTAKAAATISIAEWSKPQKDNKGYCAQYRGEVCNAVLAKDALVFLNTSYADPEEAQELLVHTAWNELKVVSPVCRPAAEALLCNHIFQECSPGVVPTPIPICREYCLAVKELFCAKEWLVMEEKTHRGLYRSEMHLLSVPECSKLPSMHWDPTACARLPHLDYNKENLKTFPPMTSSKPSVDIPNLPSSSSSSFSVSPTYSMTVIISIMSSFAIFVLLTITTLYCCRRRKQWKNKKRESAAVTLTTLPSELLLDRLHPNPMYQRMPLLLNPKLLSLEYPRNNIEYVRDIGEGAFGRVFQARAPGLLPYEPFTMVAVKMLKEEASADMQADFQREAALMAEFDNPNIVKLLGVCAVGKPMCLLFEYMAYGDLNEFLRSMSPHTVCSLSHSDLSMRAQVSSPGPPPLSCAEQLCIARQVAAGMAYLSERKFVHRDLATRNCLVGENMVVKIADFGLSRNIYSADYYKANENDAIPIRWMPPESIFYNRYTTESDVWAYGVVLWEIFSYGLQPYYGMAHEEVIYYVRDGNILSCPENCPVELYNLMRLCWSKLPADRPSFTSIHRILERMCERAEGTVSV
In short: as §1

MAP2K2 (MEK2) = target: T3, MAP2K2 (MEK2) (Homo sapiens, UniProt P36507); details: 10 µM compound; ATP 100
T3 construct: purchased ThermoFisher (SelectScreen, Z'-LYTE)
In short: as §1

MARK3 = target: T4, MARK3 (Homo sapiens, UniProt P27448)
T4 construct: purchased ThermoFisher (SelectScreen, Z'-LYTE)
T4 sequence (P27448 whole entry): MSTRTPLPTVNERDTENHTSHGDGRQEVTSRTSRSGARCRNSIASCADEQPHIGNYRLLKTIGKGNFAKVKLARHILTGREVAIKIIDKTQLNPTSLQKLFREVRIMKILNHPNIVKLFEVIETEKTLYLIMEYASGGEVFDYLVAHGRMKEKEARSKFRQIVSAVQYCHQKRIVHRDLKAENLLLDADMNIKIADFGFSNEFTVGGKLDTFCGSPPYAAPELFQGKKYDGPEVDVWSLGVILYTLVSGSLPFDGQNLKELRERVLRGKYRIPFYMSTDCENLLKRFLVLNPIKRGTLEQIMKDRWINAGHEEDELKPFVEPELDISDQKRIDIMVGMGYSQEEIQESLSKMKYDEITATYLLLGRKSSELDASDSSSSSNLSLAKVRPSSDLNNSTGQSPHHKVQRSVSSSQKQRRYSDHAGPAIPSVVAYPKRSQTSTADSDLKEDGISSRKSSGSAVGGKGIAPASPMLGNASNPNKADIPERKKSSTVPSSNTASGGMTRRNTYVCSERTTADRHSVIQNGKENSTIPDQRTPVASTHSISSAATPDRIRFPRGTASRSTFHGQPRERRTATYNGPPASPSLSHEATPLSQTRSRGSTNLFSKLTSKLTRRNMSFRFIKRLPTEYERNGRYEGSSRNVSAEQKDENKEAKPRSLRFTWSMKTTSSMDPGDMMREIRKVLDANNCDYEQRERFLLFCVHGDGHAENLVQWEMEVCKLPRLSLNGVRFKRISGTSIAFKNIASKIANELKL
In short: as §1

MELK = target: T5, MELK (Homo sapiens, UniProt Q14680)
T5 construct: purchased ThermoFisher (SelectScreen, Z'-LYTE)
T5 sequence (Q14680 whole entry): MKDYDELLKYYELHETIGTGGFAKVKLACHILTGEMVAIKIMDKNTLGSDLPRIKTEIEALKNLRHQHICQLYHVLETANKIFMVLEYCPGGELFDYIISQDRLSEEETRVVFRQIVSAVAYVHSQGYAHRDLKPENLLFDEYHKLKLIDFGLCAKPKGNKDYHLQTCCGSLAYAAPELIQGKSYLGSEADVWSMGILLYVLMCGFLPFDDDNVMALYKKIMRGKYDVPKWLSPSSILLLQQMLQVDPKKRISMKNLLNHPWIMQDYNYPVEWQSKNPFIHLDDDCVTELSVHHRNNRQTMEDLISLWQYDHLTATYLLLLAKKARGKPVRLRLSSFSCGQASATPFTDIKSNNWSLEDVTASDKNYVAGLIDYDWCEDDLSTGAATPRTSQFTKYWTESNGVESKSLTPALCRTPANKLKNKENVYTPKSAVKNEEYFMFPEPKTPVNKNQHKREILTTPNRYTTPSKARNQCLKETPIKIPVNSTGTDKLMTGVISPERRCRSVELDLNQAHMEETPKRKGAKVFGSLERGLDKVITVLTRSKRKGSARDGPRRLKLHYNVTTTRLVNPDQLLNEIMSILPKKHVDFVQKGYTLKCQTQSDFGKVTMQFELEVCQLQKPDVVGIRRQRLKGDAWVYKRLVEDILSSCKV
In short: as §1

AXL = target: T6, AXL (Homo sapiens, UniProt P30530)
T6 construct: purchased ThermoFisher (SelectScreen, Z'-LYTE)
T6 sequence (P30530 26-894): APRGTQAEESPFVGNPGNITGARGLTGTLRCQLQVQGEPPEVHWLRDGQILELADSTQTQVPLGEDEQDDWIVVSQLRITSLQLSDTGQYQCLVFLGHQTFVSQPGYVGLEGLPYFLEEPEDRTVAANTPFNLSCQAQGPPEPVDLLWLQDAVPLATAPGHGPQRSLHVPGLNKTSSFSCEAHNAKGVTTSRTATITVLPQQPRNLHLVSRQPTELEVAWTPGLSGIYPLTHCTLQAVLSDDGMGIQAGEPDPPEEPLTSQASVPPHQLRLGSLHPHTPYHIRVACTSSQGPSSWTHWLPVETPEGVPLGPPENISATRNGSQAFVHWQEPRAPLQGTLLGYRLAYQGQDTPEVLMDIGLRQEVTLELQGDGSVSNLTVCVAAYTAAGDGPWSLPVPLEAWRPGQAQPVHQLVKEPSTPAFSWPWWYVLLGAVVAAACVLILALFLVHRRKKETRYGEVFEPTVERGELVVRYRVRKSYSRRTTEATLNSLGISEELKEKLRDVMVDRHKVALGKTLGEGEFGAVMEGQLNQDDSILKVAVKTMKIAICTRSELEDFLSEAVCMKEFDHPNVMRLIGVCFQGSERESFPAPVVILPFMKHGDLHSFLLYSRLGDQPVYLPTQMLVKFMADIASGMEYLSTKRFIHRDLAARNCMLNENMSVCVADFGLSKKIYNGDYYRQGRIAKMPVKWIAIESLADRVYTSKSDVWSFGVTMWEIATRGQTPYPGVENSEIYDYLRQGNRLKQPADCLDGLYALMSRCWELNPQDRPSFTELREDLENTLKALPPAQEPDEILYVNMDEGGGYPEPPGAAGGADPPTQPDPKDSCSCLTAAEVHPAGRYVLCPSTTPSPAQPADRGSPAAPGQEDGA
In short: as §1

INSRR (IRR) = target: T7, INSRR (IRR) (Homo sapiens, UniProt P14616)
T7 construct: purchased ThermoFisher (SelectScreen, Z'-LYTE)
T7 sequence (P14616 27-1297): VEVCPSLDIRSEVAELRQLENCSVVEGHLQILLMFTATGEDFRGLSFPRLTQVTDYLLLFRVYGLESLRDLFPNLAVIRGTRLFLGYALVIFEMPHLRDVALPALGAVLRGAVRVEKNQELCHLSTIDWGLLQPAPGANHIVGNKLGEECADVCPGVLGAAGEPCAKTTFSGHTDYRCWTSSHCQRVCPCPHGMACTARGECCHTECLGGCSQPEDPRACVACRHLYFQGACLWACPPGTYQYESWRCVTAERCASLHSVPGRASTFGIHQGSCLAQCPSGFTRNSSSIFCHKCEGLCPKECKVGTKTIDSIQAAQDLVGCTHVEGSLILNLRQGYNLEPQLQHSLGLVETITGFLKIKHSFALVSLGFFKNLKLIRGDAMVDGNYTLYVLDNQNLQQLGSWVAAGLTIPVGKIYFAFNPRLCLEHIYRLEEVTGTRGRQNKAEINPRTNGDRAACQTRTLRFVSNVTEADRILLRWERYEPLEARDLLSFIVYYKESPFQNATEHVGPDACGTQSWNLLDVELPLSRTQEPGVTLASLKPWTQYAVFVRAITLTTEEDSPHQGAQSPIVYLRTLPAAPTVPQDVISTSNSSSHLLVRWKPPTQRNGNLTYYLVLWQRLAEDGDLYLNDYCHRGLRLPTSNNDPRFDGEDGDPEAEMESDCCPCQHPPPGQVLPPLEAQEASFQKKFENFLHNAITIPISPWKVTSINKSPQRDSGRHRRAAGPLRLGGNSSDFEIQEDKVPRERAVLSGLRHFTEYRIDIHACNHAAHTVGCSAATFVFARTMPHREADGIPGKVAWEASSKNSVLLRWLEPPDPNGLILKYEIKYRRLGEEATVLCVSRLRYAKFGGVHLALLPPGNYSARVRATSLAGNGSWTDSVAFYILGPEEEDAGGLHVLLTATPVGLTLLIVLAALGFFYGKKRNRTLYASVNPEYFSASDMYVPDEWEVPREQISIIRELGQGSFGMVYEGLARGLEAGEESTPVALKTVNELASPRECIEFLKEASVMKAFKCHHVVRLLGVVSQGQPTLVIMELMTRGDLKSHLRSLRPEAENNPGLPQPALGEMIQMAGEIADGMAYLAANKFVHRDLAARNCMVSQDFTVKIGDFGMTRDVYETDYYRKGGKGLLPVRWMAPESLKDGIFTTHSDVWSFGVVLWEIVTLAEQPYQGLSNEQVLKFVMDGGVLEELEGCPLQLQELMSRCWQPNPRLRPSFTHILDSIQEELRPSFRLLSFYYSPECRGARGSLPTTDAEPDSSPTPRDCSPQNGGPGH
In short: as §1

Cc1cc(Nc2nc(N)nn2C(=O)NC(C)C)ccc1Cl [Compound 5]
inhibition at 10 µM (MERTK (cMER)): 43% | inhibition at 10 µM (MUSK): 22% | inhibition at 10 µM (MAP2K2 (MEK2)): 21% | inhibition at 10 µM (MARK3): 25% | inhibition at 10 µM (MELK): 4.73% | inhibition at 10 µM (AXL): 18% | inhibition at 10 µM (INSRR (IRR)): 5.63%

Cc1ncc(-c2nc(Nc3ccc(C(=O)NCCN4CCCCC4)cc3)ncc2F)n1C(C)C [Compound 3]
inhibition at 10 µM (MERTK (cMER)): 99% | inhibition at 10 µM (MUSK): 92% | inhibition at 10 µM (MAP2K2 (MEK2)): 94% | inhibition at 10 µM (MARK3): 84% | inhibition at 10 µM (MELK): 100% | inhibition at 10 µM (AXL): 95% | inhibition at 10 µM (INSRR (IRR)): 105%

XMD8-92 [Compound 2, reference compound]
MERTK (cMER) % Inhibition (MERTK (cMER); 10 µM compound, ATP Km app): 0.252% | MUSK % Inhibition (MUSK; 10 µM compound, ATP Km app): 21% | MAP2K2 (MEK2) % Inhibition (MAP2K2 (MEK2)): 24% | MARK3 % Inhibition (MARK3; 10 µM compound, ATP Km app): 28% | MELK % Inhibition (MELK; 10 µM compound, ATP Km app): 80% | AXL % Inhibition (AXL; 10 µM compound, ATP Km app): 3% | INSRR (IRR) % Inhibition (INSRR (IRR); 10 µM compound, ATP Km app): 21%
